Data from the supplement of paper PMC13207355.

Key:
Settings in all cases: exposure time: 72 h
E13 [1] = patient-derived glioblastoma stem cells of classical subtype; experiment: surviving fraction (nuclei count normalised to DMSO); higher = more cells surviving (less toxic)
E21 [2] = patient-derived glioblastoma stem cells of mesenchymal subtype; experiment: as above
E28 [3] = patient-derived glioblastoma stem cells of classical subtype; experiment: as above
E31 [4] = patient-derived glioblastoma stem cells of proneural subtype; experiment: as above
E34 [5] = patient-derived glioblastoma stem cells of proneural subtype; experiment: as above
E57 [6] = patient-derived glioblastoma stem cells of mesenchymal subtype; experiment: as above
FT3469 [7] = normal neural stem cell line; experiment: as above
E13 [8] = experiment: phenotypic distance (Euclidean, principal components) from DMSO controls (arbitrary units); higher = stronger morphological change
E21 [9] = experiment: as above
E28 [10] = experiment: as above
E31 [11] = experiment: as above
E34 [12] = experiment: as above
E57 [13] = experiment: as above
FT3469 [14] = experiment: as above
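For phenotypic distance (Euclidean, principal components) from DMSO controls in this document: cell Painting imaging in 384-well plates, CellProfiler features reduced to at least 20 principal components, Euclidean distance versus same-plate DMSO vehicle wells (0.1% v/v), median over six images per well.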
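For surviving fraction (nuclei count normalised to DMSO) in this document: nuclei counted by high-content imaging of Hoechst-stained cells in laminin-coated 384-well plates, relative to 0.1% DMSO vehicle wells, with staurosporine as cell-death control.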

C=CC(=O)Nc1cccc(Oc2nc(Nc3ccc(N4CCN(C)CC4)cc3)nc3ccsc23)c1 [Olmutinib]
Settings | phenotypic distance | surviving fraction
E13 [1], 4.1 nM | – | 0.944
E13 [1], 12.3 nM | – | 0.915
E13 [1], 37 nM | – | 0.963
E13 [1], 111.1 nM | – | 0.967
E13 [1], 333.3 nM | – | 0.965
E13 [1], 1000 nM | – | 0.801
E13 [1], 3000 nM | – | 0.453
E13 [8], 4.1 nM | 0.908 | –
E13 [8], 12.3 nM | 0.809 | –
E13 [8], 37 nM | 2.13 | –
E13 [8], 111.1 nM | 1.1 | –
E13 [8], 333.3 nM | 0.827 | –
E13 [8], 1000 nM | 0.937 | –
E13 [8], 3000 nM | 1.92 | –
E21 [2], 4.1 nM | – | 0.895
E21 [2], 12.3 nM | – | 0.932
E21 [2], 37 nM | – | 0.932
E21 [2], 111.1 nM | – | 0.759
E21 [2], 333.3 nM | – | 0.873
E21 [2], 1000 nM | – | 0.67
E21 [2], 3000 nM | – | 0.411
E21 [9], 4.1 nM | 0.923 | –
E21 [9], 12.3 nM | 0.831 | –
E21 [9], 37 nM | 0.851 | –
E21 [9], 111.1 nM | 3.27 | –
E21 [9], 333.3 nM | 1.24 | –
E21 [9], 1000 nM | 2.44 | –
E21 [9], 3000 nM | 5.22 | –
E28 [3], 4.1 nM | – | 0.955
E28 [3], 12.3 nM | – | 0.88
E28 [3], 37 nM | – | 1.02
E28 [3], 111.1 nM | – | 0.954
E28 [3], 333.3 nM | – | 0.885
E28 [3], 1000 nM | – | 0.842
E28 [3], 3000 nM | – | 0.419
E28 [10], 4.1 nM | 0.675 | –
E28 [10], 12.3 nM | 0.862 | –
E28 [10], 37 nM | 0.601 | –
E28 [10], 111.1 nM | 0.634 | –
E28 [10], 333.3 nM | 0.515 | –
E28 [10], 1000 nM | 1.01 | –
E28 [10], 3000 nM | 2.28 | –
E31 [4], 4.1 nM | – | 0.776
E31 [4], 12.3 nM | – | 0.969
E31 [4], 37 nM | – | 1.01
E31 [4], 111.1 nM | – | 0.698
E31 [4], 333.3 nM | – | 0.856
E31 [4], 1000 nM | – | 0.568
E31 [4], 3000 nM | – | 0.155
E31 [11], 4.1 nM | 1.5 | –
E31 [11], 12.3 nM | 0.605 | –
E31 [11], 37 nM | 0.731 | –
E31 [11], 111.1 nM | 1.36 | –
E31 [11], 333.3 nM | 0.65 | –
E31 [11], 1000 nM | 1.66 | –
E31 [11], 3000 nM | 4.05 | –
E34 [5], 4.1 nM | – | 0.929
E34 [5], 12.3 nM | – | 0.967
E34 [5], 37 nM | – | 0.814
E34 [5], 111.1 nM | – | 0.994
E34 [5], 333.3 nM | – | 0.857
E34 [5], 1000 nM | – | 0.804
E34 [5], 3000 nM | – | 0.673
E34 [12], 4.1 nM | 0.793 | –
E34 [12], 12.3 nM | 0.977 | –
E34 [12], 37 nM | 0.66 | –
E34 [12], 111.1 nM | 0.999 | –
E34 [12], 333.3 nM | 0.636 | –
E34 [12], 1000 nM | 0.75 | –
E34 [12], 3000 nM | 2.02 | –
E57 [6], 4.1 nM | – | 0.983
E57 [6], 12.3 nM | – | 1.09
E57 [6], 37 nM | – | 0.983
E57 [6], 111.1 nM | – | 0.915
E57 [6], 333.3 nM | – | 0.958
E57 [6], 1000 nM | – | 0.845
E57 [6], 3000 nM | – | 0.585
E57 [13], 4.1 nM | 0.67 | –
E57 [13], 12.3 nM | 0.94 | –
E57 [13], 37 nM | 0.658 | –
E57 [13], 111.1 nM | 2.04 | –
E57 [13], 333.3 nM | 0.972 | –
E57 [13], 1000 nM | 0.888 | –
E57 [13], 3000 nM | 3.89 | –
FT3469 [7], 4.1 nM | – | 0.879
FT3469 [7], 12.3 nM | – | 0.925
FT3469 [7], 37 nM | – | 0.864
FT3469 [7], 111.1 nM | – | 0.916
FT3469 [7], 333.3 nM | – | 0.851
FT3469 [7], 1000 nM | – | 0.856
FT3469 [7], 3000 nM | – | 0.722
FT3469 [14], 4.1 nM | 1.28 | –
FT3469 [14], 12.3 nM | 1.16 | –
FT3469 [14], 37 nM | 1.51 | –
FT3469 [14], 111.1 nM | 1.24 | –
FT3469 [14], 333.3 nM | 1.44 | –
FT3469 [14], 1000 nM | 1.3 | –
FT3469 [14], 3000 nM | 1.91 | –

Cc1cccn2c(=O)c(-c3nnn[nH]3)cnc12 [Pemirolast potassium]
Settings | phenotypic distance | surviving fraction
E13 [1], 4.1 nM | – | 0.925
E13 [1], 12.3 nM | – | 0.971
E13 [1], 37 nM | – | 1
E13 [1], 111.1 nM | – | 1.04
E13 [1], 333.3 nM | – | 0.947
E13 [1], 1000 nM | – | 0.974
E13 [1], 3000 nM | – | 1.18
E13 [8], 4.1 nM | 0.849 | –
E13 [8], 12.3 nM | 0.649 | –
E13 [8], 37 nM | 2.3 | –
E13 [8], 111.1 nM | 0.669 | –
E13 [8], 333.3 nM | 3.24 | –
E13 [8], 1000 nM | 0.451 | –
E13 [8], 3000 nM | 0.784 | –
E21 [2], 4.1 nM | – | 0.923
E21 [2], 12.3 nM | – | 0.982
E21 [2], 37 nM | – | 0.908
E21 [2], 111.1 nM | – | 0.88
E21 [2], 333.3 nM | – | 0.953
E21 [2], 1000 nM | – | 1.01
E21 [2], 3000 nM | – | 1.1
E21 [9], 4.1 nM | 0.761 | –
E21 [9], 12.3 nM | 0.597 | –
E21 [9], 37 nM | 3.74 | –
E21 [9], 111.1 nM | 0.731 | –
E21 [9], 333.3 nM | 0.31 | –
E21 [9], 1000 nM | 0.294 | –
E21 [9], 3000 nM | 0.896 | –
E28 [3], 4.1 nM | – | 1.07
E28 [3], 12.3 nM | – | 1.11
E28 [3], 37 nM | – | 1.06
E28 [3], 111.1 nM | – | 0.959
E28 [3], 333.3 nM | – | 1.14
E28 [3], 1000 nM | – | 1.05
E28 [3], 3000 nM | – | 1.22
E28 [10], 4.1 nM | 0.658 | –
E28 [10], 12.3 nM | 0.636 | –
E28 [10], 37 nM | 0.677 | –
E28 [10], 111.1 nM | 0.665 | –
E28 [10], 333.3 nM | 0.613 | –
E28 [10], 1000 nM | 0.514 | –
E28 [10], 3000 nM | 0.875 | –
E31 [4], 4.1 nM | – | 0.909
E31 [4], 12.3 nM | – | 0.917
E31 [4], 37 nM | – | 0.897
E31 [4], 111.1 nM | – | 0.921
E31 [4], 333.3 nM | – | 1.21
E31 [4], 1000 nM | – | 0.987
E31 [4], 3000 nM | – | 1.12
E31 [11], 4.1 nM | 1.22 | –
E31 [11], 12.3 nM | 0.493 | –
E31 [11], 37 nM | 0.804 | –
E31 [11], 111.1 nM | 0.401 | –
E31 [11], 333.3 nM | 0.814 | –
E31 [11], 1000 nM | 0.403 | –
E31 [11], 3000 nM | 0.73 | –
E34 [5], 4.1 nM | – | 1.09
E34 [5], 12.3 nM | – | 0.99
E34 [5], 37 nM | – | 1.04
E34 [5], 111.1 nM | – | 0.927
E34 [5], 333.3 nM | – | 1.15
E34 [5], 1000 nM | – | 1.03
E34 [5], 3000 nM | – | 1.11
E34 [12], 4.1 nM | 1.15 | –
E34 [12], 12.3 nM | 0.672 | –
E34 [12], 37 nM | 0.605 | –
E34 [12], 111.1 nM | 0.603 | –
E34 [12], 333.3 nM | 0.641 | –
E34 [12], 1000 nM | 0.674 | –
E34 [12], 3000 nM | 0.547 | –
E57 [6], 4.1 nM | – | 0.965
E57 [6], 12.3 nM | – | 0.992
E57 [6], 37 nM | – | 0.959
E57 [6], 111.1 nM | – | 1.09
E57 [6], 333.3 nM | – | 0.986
E57 [6], 1000 nM | – | 1.01
E57 [6], 3000 nM | – | 1.01
E57 [13], 4.1 nM | 0.873 | –
E57 [13], 12.3 nM | 0.412 | –
E57 [13], 37 nM | 0.46 | –
E57 [13], 111.1 nM | 0.618 | –
E57 [13], 333.3 nM | 0.603 | –
E57 [13], 1000 nM | 0.198 | –
E57 [13], 3000 nM | 0.693 | –
FT3469 [7], 4.1 nM | – | 1.01
FT3469 [7], 12.3 nM | – | 0.959
FT3469 [7], 37 nM | – | 1.08
FT3469 [7], 111.1 nM | – | 1.07
FT3469 [7], 333.3 nM | – | 1.19
FT3469 [7], 1000 nM | – | 1.09
FT3469 [7], 3000 nM | – | 1.23
FT3469 [14], 4.1 nM | 1.49 | –
FT3469 [14], 12.3 nM | 0.577 | –
FT3469 [14], 37 nM | 0.829 | –
FT3469 [14], 111.1 nM | 0.485 | –
FT3469 [14], 333.3 nM | 0.522 | –
FT3469 [14], 1000 nM | 0.561 | –
FT3469 [14], 3000 nM | 1.16 | –
